The values below come from the NIST ThermoML archive (doi:10.1016/j.jct.2005.04.013).

± gives the expanded uncertainty stated by the source.

A short description of this data set: activity coefficient (dimensionless); of the first substance listed, at infinite dilution; xn = mol fraction of the nth substance listed. The following applies: 363.65 K; Liquid; x1 = 0.
`CCO` [ethanol] + CCCCCCCC[n+]1ccn(C)c1.F[B-](F)(F)F: the activity coefficient is 0.81 ± 0.06.

With `CCO` [ethanol] + CCCCn1cc[n+](C)c1.F[B-](F)(F)F, the activity coefficient stood at 1.25 ± 0.08.

Take `CCO` [ethanol] + CCCCn1cc[n+](C)c1.[Cl-]: the activity coefficient was determined as 0.2 ± 0.07.

On to `CCO` [ethanol] + CCn1cc[n+](C)c1.F[B-](F)(F)F, for which the activity coefficient amounted to 1.33 ± 0.09.

Turning to `CO` [methanol] + CCn1cc[n+](C)c1.F[B-](F)(F)F, the activity coefficient was 0.4 ± 0.07.

With `C1CCOC1` [tetrahydrofuran] + CCCCCCCC[n+]1ccn(C)c1.F[B-](F)(F)F, the activity coefficient was determined as 1.09 ± 0.06.

Turning to `C1CCOC1` [tetrahydrofuran] + CCCCn1cc[n+](C)c1.F[B-](F)(F)F, the activity coefficient stood at 2 ± 0.18.

As for `C1CCOC1` [tetrahydrofuran] + CCCCn1cc[n+](C)c1.[Cl-], the activity coefficient was 3.81 ± 0.35.

As for `C1CCOC1` [tetrahydrofuran] + CCn1cc[n+](C)c1.F[B-](F)(F)F, the activity coefficient is 3.48 ± 0.32.

`O` [water] + CCCCCCCC[n+]1ccn(C)c1.F[B-](F)(F)F: the activity coefficient was determined as 0.68 ± 0.06.

As to `O` [water] + CCCCn1cc[n+](C)c1.F[B-](F)(F)F, the activity coefficient was 0.61 ± 0.06.

For the compound `O` [water] + CCCCn1cc[n+](C)c1.[Cl-], the activity coefficient turned out to be 0.1.

For the compound `O` [water] + CCn1cc[n+](C)c1.F[B-](F)(F)F, the activity coefficient is 0.45 ± 0.07.
